The subject of data set [1] is LOX human melanoma cell adhesion to murine laminin. Kind of data set: LOX cell adhesion to laminin. The format is cell-based. The conditions noted are these: read-out: Laminin IC50. How it is done:
(§1) Adhesion assays were run essentially as described previously (Pai et al., J. Biomed. Res. 2: 53, 1992). 96-well plates were coated with human fibronectin (140 ng/well), human vitronectin (75 ng/well), human collagen I (100 ng/well), human collagen IV (100 ng/well), human fibrinogen (1 μg/well), murine laminin (600 ng/well), or polylysine, and incubated overnight in a humidified 37° C. incubator. Excess fibronectin or other substrate was then removed and 0.2 ml of 2 mg/ml bovine serum albumin (BSA)in Dulbecco's phosphate-buffered saline (DPBS) was added to each well, incubated for 2 hours at 37° C., and removed. LOX human melanoma cells, M27 murine lung carcinoma cells or B16F10 mouse melanoma cells were detached from tissue culture flasks with RPMI medium containing 0.2M urea and 10 mM EDTA, and 0.18 ml of cells were added to each well to a final cell concentration of 1×10^5 cells/well. For inhibition studies 20 μl of 10× compound was added to the wells prior to cell addition. Cells were allowed to adhere for 1 hour at 37° C. The wells were then gently washed twice with 0.2 ml DPBS. The fluorescent dye calcein AM (Molecular Probes, Eugene Oreg.) in DPBS (0.1 ml of 1 μM) was added to each well, and the plates were incubated for 1 hour at room temperature. Adherent cells were quantitated by reading the fluorescence on a Cytofluor 2300 fluorescent plate reader (Millipore) at 485 nm excitation and 530 nm emission.

Data set [2] has as its system LOX human melanoma cell adhesion to human vitronectin. Kind of data set: LOX cell adhesion to vitronectin. The format is cell-based. The note with it: read-out: Vitronectin IC50. How it is done: as §1
Data set [3] is described as follows: Calcein cytotoxicity assay. The conditions noted are these: human, lox melanoma cells, calcein AM assay; for CC50 at 2 h: read-out: 2 Hr Tox LD50. The format is cell-based.
The subject of data set [4] is LOX human melanoma cell adhesion to human fibronectin. Kind of data set: LOX melanoma cell adhesion to fibronectin. The format is cell-based. The note with it: Homo sapiens, LOX; for inhibition at 10 µM: read-out: % Inhibition at 10 μM; for inhibition at 50 µM: read-out: % Inhibition at 50 μM. The essentials: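 Compound added to fibronectin-coated (140 ng/well), BSA-blocked wells before LOX cells (1×10^5/well, detached with urea/EDTA). Cells adhered 1 h at 37 °C, then washed. Adherent cells quantified by calcein AM fluorescence (485/530 nm); IC50 for adhesion inhibition.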

The subject of data set [5] is histamine-induced dyspnea. Kind of data set: Bronchodilator (in vivo) Guinea Pig Dyspnea. The conditions noted are these: 100 mg/kg, oral, one hour before histamine challenge. The essentials:
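Fasted, unanesthetized guinea pigs (250-350 g) received the test drug orally one hour before exposure to an aerosolized 0.1% histamine solution. Onset of dyspnea was recorded, and data were expressed as number tested over number survived.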

The test system of data set [6] is LOX human melanoma cell adhesion to human collagen IV. The experiment in a line: LOX cell adhesion to collagen IV. The note with it: read-out: Collagen IV IC50. The format is cell-based. How it is done:
as §1

The test system of data set [7] is LOX human melanoma cell adhesion to polylysine. Kind of data set: LOX melanoma cell adhesion to polylysine. The format is cell-based. The note with it: read-out: Poly Lys IC50.
Data set [8] relates to LOX human melanoma cell adhesion to human collagen I. Kind of data set: LOX cell adhesion to collagen I. The conditions noted are these: read-out: Collagen I IC50. The format is cell-based. How it is done: as §1
Data set [9] deals with LOX human melanoma cell adhesion to human fibrinogen. The experiment in a line: LOX cell adhesion to fibrinogen. The format is cell-based. The conditions noted are these: read-out: Fibrinogen IC50. As to the method: as §1
The test system of data set [10] is B16-F10 mouse melanoma cell adhesion to fibronectin. Kind of data set: B16-F10 melanoma cell adhesion to fibronectin. The format is cell-based. The note with it: read-out: B16 FN IC50. As to the method:
as §1

Data set [11] addresses ELAM-1 (Homo sapiens, UniProt P16581). The experiment in a line: cell-based. As to the method: Cell adhesion to ELAM-1 was measured essentially as described previously (Pal et al., J. Biomed. Res. 2: 53, 1992). Undifferentiated HL-60 leukemia cells were prelabelled for 30 minutes with 1 μM calcein AM in DPBS without calcium or magnesium, and the cells were washed twice with the same medium before addition to 96-well plates containing monolayers of mouse L cells (5×10^4 cells/well) transfected with cDNA for the adhesion molecule ELAM-1. Adhesion was allowed to proceed for 30 minutes at room temperature before washing and quantitation of the remaining fluorescent HL-60 cells as described above.
ELAM-1 (E-selectin) is a member of the selectin class of adhesion molecules.

Data set [12] relates to LOX human melanoma cells. The experiment in a line: Tumor cell invasion through collagen/fibronectin coated membranes. The format is cell-based. How it is done: […] Cell Invasion Through Collagen/Fibronectin Coated Membranes:
Nucleopore polycarbonate membranes (8 μm pore size) were coated with 0.05 ml of type I collagen and allowed to dry overnight. 210 μl of serum free DMEM with BSA was added to each Boyden chamber. Membranes were placed in chambers and upper chambers were screwed on. Human fibronectin (50 μl of 0.1 mg/ml solution in DMEM with BSA) was added to the top chamber and allowed to sit on membranes for 1 hour at room temperature. Compounds (50 μl) at 10× concentration in DMEM with BSA were added to the chambers. LOX melanoma cells were detached from flasks with trypsin/EDTA solution and resuspended in RPMI with 10% fetal bovine serum. Cells were centrifuged, washed 2× with DMEM with BSA, and resuspended in 10 ml of DMEM with BSA. LOX cells (0.45 ml of 7.8×10^5 cells per ml) were added to each chamber and chambers were incubated for 5 hours at 37° C. The medium was removed from the upper chamber by aspiration, the top chamber was unscrewed, and the membrane was removed. The membrane was inverted, pinned to a dissecting tray, and fixed with Diff Quik fixative for 3 minutes The fixative was then removed and Diff Quik Stain was added for 2 minutes. The stain was decanted and membranes were rinsed with distilled water. Membranes were inverted onto glass slides, and non-invading cells were wiped away with a cotton swab. Permount was added to the slide and the membrane was covered with a cover slip. The number of cells that invaded was quantitated on a Nikon TMS microscope with C-2 Image Analyzer software (Olympus Corp.).
The greater potency of the compounds in this assay (IC50 for compound B<400 nM) may result from the longer duration of this assay (5 hours) relative to the fibronectin adhesion assay (1 hour).

Data set [13] in a line: MTT cytotoxicity assay. The format is cell-based. The conditions noted are these: human, lox melanoma cells, read-out: MTT 1 Hr LD50. As to the method:
LOX human melanoma cells, in RPMI medium with 2 mg/ml BSA and 25 mM HEPES, pH 7.4, were seeded at 4×10^4 cells/well in 96-well microtiter plates and grown overnight in a humidified 37° C. incubator. On the following day, the medium was aspirated and wells were washed once with 0.1 ml of DPBS. Compounds (0.1 ml) in DPBS were added to wells in quadruplicate at appropriate concentrations. The cells were then incubated with test compound for 1 hour at 37° C. Wells were aspirated and washed 2× with 0.1 ml DPBS. MTT [3-(4,5-Dimethylthiazol-2-yl)-2,5-diphenyltetrazolium bromide] (0.1 ml of 1 mg/ml solution in PBS from Sigma Chemical Co.) was added to each well and incubated for 2 hour at 37° C. MTT was aspirated and 0.1 ml of 50% N,N-dimethylformamide with 20% sodium dodecyl sulfate was added to each well. Plates were shaken for 10 minutes on a Titer-Plate shaker (Labline) at room temperature. Optical density was read at 570 nm with a plate-reading spectrophotometer (Dynatech MR5000).
(In general: Tetrazolium dyes change colour on reduction, which living cells bring about.)

Data set [14] has as its system M27 murine lung carcinoma cell adhesion to fibronectin. The experiment in a line: M27 lung carcinoma cell adhesion to fibronectin. The format is cell-based. The conditions noted are these: Mus musculus; read-out: M27 FN IC50. As to the method: as §1
Data set [15] concerns the target T1, ICAM-1 (Homo sapiens, UniProt P05362).
T1 construct: recombinant soluble ICAM-1 (2 μg/well)
The experiment in a line: HL-60 cell adhesion to recombinant soluble ICAM-1. The conditions noted are these: HL-60 cells. The format is cell-based. How it is done:
For measurement of cell adhesion to ICAM-1, HL-60 human leukemia cells were induced to differentiate in the presence of DMSO for 6 days. Adhesion of DMSO-differentiated HL-60 cells to recombinant soluble ICAM-1 (2 μg/well) was measured as described above for LOX cell adhesion, except that the adhesion was allowed to proceed for 30 minutes, rather than 1 hour, at 37° C.
ICAM-1 is a cell surface adhesion molecule that participates in cell-cell adhesion interactions, rather than cell-matrix adhesion interactions.

Like-named read-outs stand apart in the source and are kept apart here.

T1 sequence (P05362 28-480 limits assumed): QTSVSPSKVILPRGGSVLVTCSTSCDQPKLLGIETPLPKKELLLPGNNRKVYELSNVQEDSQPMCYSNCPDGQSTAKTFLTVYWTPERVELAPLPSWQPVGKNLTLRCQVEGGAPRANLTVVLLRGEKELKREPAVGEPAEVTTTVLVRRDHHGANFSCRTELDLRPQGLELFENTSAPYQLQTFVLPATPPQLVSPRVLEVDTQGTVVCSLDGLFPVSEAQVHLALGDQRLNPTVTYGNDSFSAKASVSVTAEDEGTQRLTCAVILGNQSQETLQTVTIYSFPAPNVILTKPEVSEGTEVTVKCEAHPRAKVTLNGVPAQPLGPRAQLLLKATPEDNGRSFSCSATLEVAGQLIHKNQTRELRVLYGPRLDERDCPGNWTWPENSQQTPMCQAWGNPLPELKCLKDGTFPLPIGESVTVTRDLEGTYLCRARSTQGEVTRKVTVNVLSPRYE
ELAM-1, sequence (P16581 22-610): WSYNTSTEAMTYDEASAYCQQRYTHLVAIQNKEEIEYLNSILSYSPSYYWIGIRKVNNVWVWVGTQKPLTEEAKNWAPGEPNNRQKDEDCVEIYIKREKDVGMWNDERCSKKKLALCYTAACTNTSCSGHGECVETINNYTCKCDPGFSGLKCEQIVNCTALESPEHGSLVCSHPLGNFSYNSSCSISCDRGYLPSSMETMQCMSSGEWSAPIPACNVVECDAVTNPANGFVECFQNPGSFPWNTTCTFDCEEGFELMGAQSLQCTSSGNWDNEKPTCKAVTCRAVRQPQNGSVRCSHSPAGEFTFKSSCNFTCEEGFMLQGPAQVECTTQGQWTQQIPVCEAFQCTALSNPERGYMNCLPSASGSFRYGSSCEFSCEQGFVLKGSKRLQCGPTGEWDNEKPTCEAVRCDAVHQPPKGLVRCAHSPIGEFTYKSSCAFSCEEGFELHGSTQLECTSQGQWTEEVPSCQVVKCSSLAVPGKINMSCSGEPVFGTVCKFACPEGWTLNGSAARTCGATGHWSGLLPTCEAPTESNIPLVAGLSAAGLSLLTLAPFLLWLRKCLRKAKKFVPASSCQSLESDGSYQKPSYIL

What is called IC50 is the concentration needed to halve the response being measured. What is called inhibition is the drop in the measured response relative to a control, in per cent. As for `CN1C2CCC1C1C(=C(c3ccccc3C(F)(F)F)c3ccccc31)C2` (centres unmarked) [Compound S], the IC50 is 7.7 µM in data set [1]; 20.2 µM in [2]; 17.7 µM in data set [4] (Table 4, 1 hour adhesion, read-out: LOX FN IC50); 17.7 µM in data set [4] (Table 5, read-out: Fibronectin IC50); 19.2 µM in [6]; > 250 µM in [7]. The results for the concentration for half-maximal inhibition (IC50) in data set [8] and in data set [9] were 11.6 µM and 15.7 µM, respectively. For the same molecule, in data set [3], the CC50 at 2 h was > 250 µM. Besides, the inhibition at 10 µM in data set [4] (10 μM) is -4.4%. Moreover, the inhibition at 50 µM in data set [4] (50 μM) came to 90.2%. In addition, the DYSP survivors in [5] is 0/3.
In the case of `CSc1ccc(C2=C3CC4CCC(C3c3ccccc32)N4C)cc1` (centres unmarked) [F, 1SR:3RS:9b-1,3 Ethano-2-methy-5-(p-methylmercaptophenyl)-1,3,4,9b-tetrahydro-2H-indeno-(2h-indeno) [1,2-c]pyridine], the IC50 was 24.2 µM in data set [10]; 5.1 µM in [4] (1 h, read-out: LOX FN IC50); > 50 µM in [11]; 0.52 µM in data set [12] (Homo sapiens, 5 hours, read-out: Invasion IC50); 24.4 µM in data set [7]; 8.7 µM in data set [14]. In addition, the IC50 in [15] stood at 16.8 µM. For the same molecule, the CC50 at 2 h in data set [3] is 43.3 µM. Besides, in data set [3] (6 hours, read-out: 6 Hr Tox LD50), the CC50 at 6 h is 19.9 µM. Moreover, the inhibition at 10 µM in data set [4] is 49.4%. Also, the inhibition at 50 µM in data set [4] came to 102%. In data set [5] (Cavia porcellus, 1 h, read-out: DYSP survivors (converted)), the responders at 100 mg/kg is 0%. The “inhibition of in vitro tumor cell invasion” value in data set [12] (fibronectin/collagen matrix) was “inhibit in vitro tumor cell invasion through a fibronectin/collagen matrix”. For the same molecule, in data set [13], the CC50 at 1 h is 51.7 µM.

(Values after patent publication US5461057A, “Hydro-ethano-indeno-pyridines” (priority 1994, dated 1995).)
